{
  "source": "DBAASP",
  "assay_in_all_cases": "≥ marks a high value that may be exact or a test limit, other limits are often not marked, values filed in µg/mL are converted to µM",
  "key": {"[1]": {"test_system": "Escherichia coli ATCC 25922"}, "[2]": {"test_system": "Proteus mirabilis ATCC 25933"}, "Candida tropicalis": {"test_system": "Candida tropicalis"}, "[3]": {"test_system": "Candida parapsilosis ATCC 22019"}, "[4]": {"test_system": "Staphylococcus aureus NCTC 8325"}, "[5]": {"test_system": "Enterobacter cloacae HNTCC 53001"}, "Candida krusei": {"test_system": "Candida krusei"}, "Candida albicans": {"test_system": "Candida albicans"}, "[6]": {"test_system": "Batrachochytrium dendrobatidis JEL-197"}, "[7]": {"test_system": "Candida albicans ATCC 90028"}, "[8]": {"test_system": "Staphylococcus epidermidis RP62A"}, "Candida parapsilosis": {"test_system": "Candida parapsilosis"}, "[9]": {"test_system": "Pseudomonas aeruginosa ATCC 27853"}, "Candida krusei ATCC 6258": {"test_system": "Candida krusei ATCC 6258"}, "[10]": {"test_system": "Enterococcus faecalis ATCC 29212"}, "[11]": {"test_system": "Klebsiella pneumoniae KK3 9904"}, "[12]": {"test_system": "Stenotrophomonas maltophilia CUN 3998-00"}, "[13]": {"test_system": "Pseudomonas aeruginosa CUN 4158-02"}, "[14]": {"test_system": "Bordetella bronchiseptica CUN 11844-99"}, "[15]": {"test_system": "Staphylococcus aureus ATCC 25923"}, "[16]": {"test_system": "Staphylococcus aureus CUN 3792-99"}, "[17]": {"test_system": "Staphylococcus aureus ATCC 43300"}, "[18]": {"test_system": "Acinetobacter baumannii ATCC 19606"}, "Escherichia coli 09-240": {"test_system": "Escherichia coli 09-240"}, "[19]": {"test_system": "Pseudomonas aeruginosa 3599"}, "[20]": {"test_system": "Staphylococcus aureus 06-051"}, "[21]": {"test_system": "Enterobacter cloacae 06-267"}, "[22]": {"test_system": "Enterobacter cloacae 14-262"}, "[23]": {"test_system": "Acinetobacter baumannii 5821"}, "Escherichia coli 170": {"test_system": "Escherichia coli 170"}, "[24]": {"test_system": "Staphylococcus aureus ATCC 29213"}, "[25]": {"test_system": "Pseudomonas aeruginosa ATCC 9027"}, "[26]": {"test_system": "Pseudomonas aeruginosa 5106"}, "[27]": {"test_system": "Staphylococcus aureus 01-001"}, "[28]": {"test_system": "Klebsiella pneumoniae 01-252"}, "[29]": {"test_system": "Klebsiella pneumoniae 01-239"}, "Escherichia coli 09-280": {"test_system": "Escherichia coli 09-280"}, "Escherichia coli 5509": {"test_system": "Escherichia coli 5509"}, "[30]": {"test_system": "Candida tropicalis ATCC 750"}, "[31]": {"test_system": "Cronobacter sakazakii ATCC 29544"}, "[32]": {"test_system": "Klebsiella pneumoniae ATCC 700603"}, "[33]": {"test_system": "Staphylococcus aureus CCT 2580"}, "[34]": {"test_system": "Escherichia coli CCT 1457"}, "[35]": {"test_system": "Escherichia coli ATCC 43827"}, "[36]": {"test_system": "Candida glabrata ATCC 2001"}, "[37]": {"test_system": "Pseudomonas aeruginosa ATCC 15442"}, "[38]": {"test_system": "Bacillus cereus ATCC 11778"}, "[39]": {"test_system": "Candida albicans ATCC 14053"}, "[40]": {"test_system": "Staphylococcus epidermidis ATCC 12228"}},
  "data": [
    {"smiles": "CC[C@H](C)[C@H](NC(=O)[C@@H]1CCCN1C(=O)[C@H](CC(C)C)NC(=O)[C@@H](N)Cc1ccccc1)C(=O)N[C@@H](CC(C)C)C(=O)N[C@@H](C)C(=O)N[C@@H](CO)C(=O)N[C@@H](CC(C)C)C(=O)N[C@@H](C)C(=O)N[C@@H](C)C(=O)N[C@@H](CCCCN)C(=O)N[C@@H](Cc1ccccc1)C(=O)NCC(=O)N1CCC[C@H]1C(=O)N[C@@H](CCCCN)C(=O)N[C@@H](CC(C)C)C(=O)N[C@@H](Cc1ccccc1)C(=O)N[C@H]1CSSC[C@@H](C(=O)O)NC(=O)[C@H](CCCCN)NC(=O)[C@H](CCCCN)NC(=O)[C@H]([C@@H](C)O)NC(=O)[C@H](C(C)C)NC(=O)[C@H](CC(C)C)NC1=O", "note": "[FLPILASLAAKFGPKLFCLVTKKC]", "values": [
      {"measurement": "MIC", "setting": "[1]", "result": 17, "unit": "µM"},
      {"measurement": "MIC", "setting": "[2]", "result": "≥ 40", "unit": "µM"},
      {"measurement": "MIC", "setting": "Candida tropicalis", "result": 5, "unit": "µM"},
      {"measurement": "MIC", "setting": "[3]", "result": 5, "unit": "µM"},
      {"measurement": "MIC", "setting": "[4]", "result": 2, "unit": "µM"},
      {"measurement": "MIC", "setting": "[5]", "result": 10, "unit": "µM"},
      {"measurement": "MIC", "setting": "Candida krusei", "result": 10, "unit": "µM"},
      {"measurement": "MIC", "setting": "Candida albicans", "result": 5, "unit": "µM"},
      {"measurement": "MIC", "setting": "[6]", "result": 12.5, "unit": "µM"},
      {"measurement": "MIC", "setting": "[7]", "result": 3, "unit": "µM"},
      {"measurement": "MIC", "setting": "[8]", "result": 5, "unit": "µM"},
      {"measurement": "MIC", "setting": "Candida parapsilosis", "result": 10, "unit": "µM"},
      {"measurement": "MIC", "setting": "[9]", "result": 10, "unit": "µM"},
      {"measurement": "MIC", "setting": "Candida krusei ATCC 6258", "result": 5, "unit": "µM"},
      {"measurement": "MIC", "setting": "[10]", "result": 5, "unit": "µM"},
      {"measurement": "MIC", "setting": "[11]", "result": "≥ 40", "unit": "µM"}
    ]},
    {"smiles": "NCCCC[C@H](NC(=O)[C@H](Cc1ccccc1)NC(=O)[C@H](CCCN=C(N)N)NC(=O)[C@H](CCCN=C(N)N)NC(=O)[C@H](CS)NC(=O)CN)C(=O)N[C@@H](CCCCN)C(=O)N[C@@H](Cc1ccccc1)C(=O)N[C@@H](CCCCN)C(=O)N[C@@H](CCCCN)C(=O)N[C@@H](Cc1c[nH]c2ccccc12)C(=O)N[C@@H](CCCN=C(N)N)C(=O)N[C@@H](Cc1ccc(O)cc1)C(=O)N[C@@H](CCCN=C(N)N)C(=O)NCC(=O)N[C@@H](CCCN=C(N)N)C(=O)N[C@@H](Cc1ccccc1)C(=O)N[C@@H](Cc1c[nH]c2ccccc12)C(=O)N[C@@H](Cc1ccccc1)C(=O)N[C@@H](Cc1c[nH]c2ccccc12)C(=O)N[C@@H](CS)C(=O)N[C@@H](Cc1ccccc1)C(=O)NCC(N)=O", "note": "[GCRRFKKFKKWRYRGRFWFWCFG]", "values": [
      {"measurement": "MIC", "setting": "[1]", "result": 20.3, "unit": "µM"},
      {"measurement": "MIC", "setting": "[12]", "result": 20.3, "unit": "µM"},
      {"measurement": "MIC", "setting": "[13]", "result": "≥ 40.7", "unit": "µM"},
      {"measurement": "MIC", "setting": "[14]", "result": 10.2, "unit": "µM"},
      {"measurement": "MIC", "setting": "[15]", "result": 20.3, "unit": "µM"},
      {"measurement": "MIC", "setting": "[9]", "result": 40.7, "unit": "µM"},
      {"measurement": "MIC", "setting": "[16]", "result": 20.3, "unit": "µM"},
      {"measurement": "MIC", "setting": "[17]", "result": 10.2, "unit": "µM"},
      {"measurement": "MIC", "setting": "[18]", "result": 20.3, "unit": "µM"}
    ]},
    {"smiles": "CC[C@H](C)[C@H](NC(=O)[C@H](C)NC(=O)[C@H](CC(N)=O)NC(=O)[C@H](CCCCN)NC(=O)[C@@H](NC(=O)CNC(=O)[C@H](CCC(=O)O)NC(=O)[C@H](Cc1c[nH]c2ccccc12)NC(=O)[C@H](CC(C)C)NC(=O)[C@H](CCCCN)NC(=O)CNC(=O)[C@H](Cc1c[nH]c2ccccc12)NC(=O)[C@H](Cc1ccccc1)NC(=O)CN)C(C)C)C(N)=O", "note": "[GFWGKLWEGVKNAI]", "values": [
      {"measurement": "MIC", "setting": "[1]", "result": 10, "unit": "µM"},
      {"measurement": "MIC", "setting": "Escherichia coli 09-240", "result": 14, "unit": "µM"},
      {"measurement": "MIC", "setting": "[19]", "result": "≥ 32", "unit": "µM"},
      {"measurement": "MIC", "setting": "[20]", "result": 4, "unit": "µM"},
      {"measurement": "MIC", "setting": "[21]", "result": "≥ 32", "unit": "µM"},
      {"measurement": "MIC", "setting": "[22]", "result": 14, "unit": "µM"},
      {"measurement": "MIC", "setting": "[23]", "result": 7, "unit": "µM"},
      {"measurement": "MIC", "setting": "Escherichia coli 170", "result": "≥ 32", "unit": "µM"},
      {"measurement": "MIC", "setting": "[24]", "result": 4, "unit": "µM"},
      {"measurement": "MIC", "setting": "[25]", "result": 10, "unit": "µM"},
      {"measurement": "MIC", "setting": "[26]", "result": "≥ 32", "unit": "µM"},
      {"measurement": "MIC", "setting": "[15]", "result": 15, "unit": "µM"},
      {"measurement": "MIC", "setting": "[27]", "result": 4, "unit": "µM"},
      {"measurement": "MIC", "setting": "[28]", "result": "≥ 32", "unit": "µM"},
      {"measurement": "MIC", "setting": "[9]", "result": "> 32", "unit": "µM"},
      {"measurement": "MIC", "setting": "[29]", "result": 12, "unit": "µM"},
      {"measurement": "MIC", "setting": "Escherichia coli 09-280", "result": "≥ 32", "unit": "µM"},
      {"measurement": "MIC", "setting": "Escherichia coli 5509", "result": "≥ 32", "unit": "µM"}
    ]},
    {"smiles": "CC[C@H](C)[C@H](N)C(=O)N[C@@H](CC(N)=O)C(=O)N[C@@H](Cc1c[nH]c2ccccc12)C(=O)N[C@@H](CC(C)C)C(=O)N[C@@H](CCCCN)C(=O)N[C@@H](CC(C)C)C(=O)NCC(=O)N[C@@H](CCCCN)C(=O)N[C@@H](CCSC)C(=O)N[C@H](C(=O)N[C@H](C(=O)N[C@@H](CC(=O)O)C(=O)N[C@@H](C)C(=O)N[C@@H](CC(C)C)C(N)=O)[C@@H](C)CC)C(C)C", "note": "[INWLKLGKMVIDAL]", "values": [
      {"measurement": "MIC", "setting": "[1]", "result": 8, "unit": "µM"},
      {"measurement": "MIC", "setting": "[30]", "result": 2, "unit": "µM"},
      {"measurement": "MIC", "setting": "[31]", "result": 16, "unit": "µM"},
      {"measurement": "MIC", "setting": "[3]", "result": 16, "unit": "µM"},
      {"measurement": "MIC", "setting": "[32]", "result": 4, "unit": "µM"},
      {"measurement": "MIC", "setting": "[24]", "result": 4, "unit": "µM"},
      {"measurement": "MIC", "setting": "[33]", "result": 2.48, "unit": "µM"},
      {"measurement": "MIC", "setting": "[34]", "result": 4.96, "unit": "µM"},
      {"measurement": "MIC", "setting": "[35]", "result": 8, "unit": "µM"},
      {"measurement": "MIC", "setting": "[36]", "result": 8, "unit": "µM"},
      {"measurement": "MIC", "setting": "[37]", "result": "≥ 38.4", "unit": "µM"},
      {"measurement": "MIC", "setting": "[38]", "result": 4.96, "unit": "µM"},
      {"measurement": "MIC", "setting": "[9]", "result": 8, "unit": "µM"},
      {"measurement": "MIC", "setting": "Candida krusei ATCC 6258", "result": 8, "unit": "µM"},
      {"measurement": "MIC", "setting": "[39]", "result": 16, "unit": "µM"},
      {"measurement": "MIC", "setting": "[40]", "result": 4, "unit": "µM"}
    ]}
  ]
}
